According to patent US6790971B1, “19-Nor-steroids” (Aventis Pharma S.A., priority 1989, dated 2004):

Key:
[1] = target: T1, Mineralocorticoid Receptor of the Rats' Kidney (Rattus norvegicus, UniProt P22199); experiment: Relative affinity of the bond, mineralocorticoid receptor (tritiated aldosterone displacement); type: binding; conditions: RAB=100(CH)/(CX); for Relative affinity of the bond (RAB), Mineralocorticoid, 1 H: incubation 1 H at 0° C.; for Relative affinity of the bond (RAB), Mineralocorticoid, 24 H: incubation 24 H at 0° C.
T1 construct: The kidneys were then removed, decapsulated and homogenized at 0° C; from tissue; host or cells: kidney cytosol (105,000 g supernatant) of adrenalectomised male Sprague-Dawley rats
T1 sequence (P22199 1-981): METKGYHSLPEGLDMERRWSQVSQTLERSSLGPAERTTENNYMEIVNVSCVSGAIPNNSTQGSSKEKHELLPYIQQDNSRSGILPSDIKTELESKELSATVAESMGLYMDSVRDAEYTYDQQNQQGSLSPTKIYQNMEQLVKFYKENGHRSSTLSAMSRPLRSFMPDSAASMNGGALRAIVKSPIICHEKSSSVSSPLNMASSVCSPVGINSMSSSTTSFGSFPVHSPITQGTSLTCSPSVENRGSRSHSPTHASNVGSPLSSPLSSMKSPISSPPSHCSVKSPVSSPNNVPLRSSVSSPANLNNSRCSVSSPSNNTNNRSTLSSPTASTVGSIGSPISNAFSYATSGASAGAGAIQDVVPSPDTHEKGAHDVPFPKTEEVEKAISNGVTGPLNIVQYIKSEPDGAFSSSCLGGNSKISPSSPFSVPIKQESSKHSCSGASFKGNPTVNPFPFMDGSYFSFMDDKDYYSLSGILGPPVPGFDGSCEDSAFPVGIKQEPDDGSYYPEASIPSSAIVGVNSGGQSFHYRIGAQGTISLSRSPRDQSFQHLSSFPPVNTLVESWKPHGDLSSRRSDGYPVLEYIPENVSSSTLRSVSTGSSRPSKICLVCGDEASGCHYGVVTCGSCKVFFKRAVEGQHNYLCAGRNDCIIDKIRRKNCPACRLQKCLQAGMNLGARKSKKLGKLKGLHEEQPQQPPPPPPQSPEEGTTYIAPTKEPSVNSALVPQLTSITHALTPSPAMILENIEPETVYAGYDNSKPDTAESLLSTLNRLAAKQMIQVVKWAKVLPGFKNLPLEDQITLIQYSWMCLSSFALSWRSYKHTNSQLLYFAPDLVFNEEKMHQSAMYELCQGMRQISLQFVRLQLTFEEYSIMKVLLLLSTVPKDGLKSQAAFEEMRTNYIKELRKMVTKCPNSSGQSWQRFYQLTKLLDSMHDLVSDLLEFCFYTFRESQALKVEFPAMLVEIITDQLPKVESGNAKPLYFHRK
Method: Mineralocorticoid Receptor of the Rats' Kidney:
Male Sprague-Dawley EOPS rats weighing 140 to 160 g were subjected to supraenalectomy 4 to 8 days earlier and were sacrificed and their kidneys were perfused in situ with 50 ml of a 10 mM Tris, 0.25 M saccharose, HCl buffer pH 7.4. The kidneys were then removed, decapsulated and homogenized at 0° C. with the aid of a Potter teflon-glass (1 g of tissue for 3 ml of buffer). The homogenate was centrifuged for 10 minutes at […] and 0° C. and then to eliminate the fixation of the tritiated aldosterone upon the glucocorticoid receptor, 11β-,17β-dihydroxy-21-methyl-Δ^1,4,6-pregnatrien-20-yn-3-one which was fixed uniquely upon the glucocorticoid receptor was added to the supernatant at a final concentration of 10^−6 M. This supernatant was ultracentrifuged at 105,000 g for 60 minutes at 0° C. and aliquots of the supernatant thus obtained were incubated at 0° C. with a constant concentration (T) of tritiated aldosterone in the presence of increasing concentrations ([…]) of the cold aldosterone or the cold product to be studied. After an incubation time (t), the concentration of bound tritiated aldosterone (B) was measured by the adsorption on dextran carbon technique.
Calculation of the Relative Affinty of the Bond
The calculation of the Relative Affinity of the Bond (RAB) was identical for all the receptors. The following 2 curves were traced; the percentage of the bound tritiated hormone [formula]
was a function of the logarithm of the concentration of the cold reference hormone and [formula]
as a function of the logarithm of the concentration of the cold product tested.
One determined the straight line of the equation [formula]
The intersections of the straight line I50 and of the curves make it possible to evaluate the concentrations of the cold reference hormone (CH) and of the tested cold product (CX) which inhibit to an extend of 50% the binding of the tritiated hormone upon the receptor. The relative affinity of the bond (RAB) of the tested product is determined by the equation

[2] = test system: MCF-7 mammary tumoral cells; experiment: Anti-proliferative activity upon the growth of MCF-7 cells (DNA measurement with DABA); type: cell-based; conditions: 6 days, inhibition of the increase of DNA, read-out: concentration which inhibited the growth of MCF7 to an extent of 50% (IC50)
Method: B. Anti-proliferative activity of the products of the invention upon the growth of MCF-7 mammary tumoral cells.
The MCF-7 strains were kept under culture in FCS(1) medium at 37° C. under a humid atmosphere containing 5% CO2 and the cells at subconfluence were harvested by trypsination (0.05% trypsine, 0.02% EDTA), then rinsed by gentle centrifugation. A sample of the cells in suspension was counted on Malassez cell.
The cells, resuspended in FCS medium, were seeded at a rate of 30,000 cells per pit in multi-pit plates (24 pits of 2.5 cm^2) and twenty four hours after seeding (DO), the product to be tested was added to the medium in ethanolic solution (final concentration in ethanol: 0.1%), at a concentration of 10^−12 to 10^−6 M, the control pits receiving the same concentration of ethanol. The media were renewed every 48 hours and at the end of the experiment (D6), the medium was sucked off and the cells were immediately fixed with 150 microliters of methanol to estimate the DNA. The anti-proliferative activity of the products was evaluated by their capacity to inhibit the increase of DNA.
The DNA was measured by a fluorimetric method employing DABA (3,5-diaminobenzoic acid) (2): 150 microliters of DABA were added to each of the pits and the plates were then incubated for 45 minutes at 56° C., then 2 ml of 1 N HCl were added. The fluorescence was measured with the aid of a fluorimeter (length of the exiting wave: 408 nm, length of the emitting wave: 501 nm). The quantity of DNA per pit was evaluated with reference to a standard scale obtained by treating a standard DNA from calf thymus under the same conditions.
The concentration in nM which inhibited the growth of MCF7 to an extent of 50% (IC50) was determined in the manner indicated below:
(1) The fetal calf serum (FCS) culture medium was prepared as follows: MEM medium (minimal essential medium) to which were added:
Non-essential amino acids (GIBCO),
Peni-strepto (100 U/ml penicillin, 0.1 mg/ml streptomycin),
Fetal calf serum containing no steroids (10% final concentration).
(2) Puzas and Goodman, Analytical Biochemistry, Vol. 86, pp. 50, 1978.

| Compound | Relative affinity of the bond (RAB), Mineralocorticoid, 1 H [1] | Relative affinity of the bond (RAB), Mineralocorticoid, 24 H [1] | IC50 [2] |
| --- | --- | --- | --- |
| CC(C)N(C)C(=O)CCCCCCCCCC[C@H]1C[C@]2(C)[C@@H](O)CC[C@H]2[C@@H]2CCc3cc(O)ccc3[C@@H]12 [Example 16, 3,17β-dihydroxy-N-methyl-N-isopropyl-11β-Δ^1,3,5(10)-estratriene undecanamide] | 0 | 0 | 0.02 nM |
| CC#C[C@]1(O)CC[C@H]2[C@@H]3CCC4=CC(=O)CCC4=C3[C@@H](CCCCCCCCCCC(=O)NCCCC)C[C@@]21C [Example 22, N-butyl-17β-hydroxy-3-oxo-17α-(1-propynyl)-11β-Δ^4,9-estradiene undecanamide] | 0 | 0 | – |
| CN(Cc1ccccc1)C(=O)CCCCCCCCCC[C@H]1C[C@]2(C)[C@@H](O)CC[C@H]2[C@@H]2CCC3=CC(=O)CCC3=C12 [Example 17, N-benzyl-17β-hydroxy-N-methyl-3-oxo-11β-Δ^4,9-estradiene undecanamide] | 2 | 0.5 | – |
| CCCCN(C)C(=O)CCCCCCCCCCC[C@H]1C[C@]2(C)[C@@H](O)CC[C@H]2[C@@H]2CCc3cc(O)ccc3[C@@H]12 [Example 24, N-butyl-3,17β-dihydroxy-N-methyl-11β-Δ^1,3,5(10)-estratriene dodecanamide] | 0 | 0 | 0.06 nM |
| N-butyl-3,17β-dihydroxy-N-methyl-19-nor-11β-Δ^1,3,5(10)-pregnatrien-20-yn undecanamide [Example 21] | 0.4 | 0.5 | 0.02 nM |
| CN(C)CCN(C)C(=O)CCCCCCCCCC[C@H]1C[C@]2(C)[C@@H](O)CC[C@H]2[C@@H]2CCC3=CC(=O)CCC3=C12 [Example 19, N-[2-(dimethylamino)-ethyl]-17β-hydroxy-N-methyl-3-oxo-11β-Δ^4,9-estradiene undecanamide] | 0.7 | 0.1 | – |
| CCCCN(C)C(=O)CCCCCCCCCC[C@H]1C[C@]2(C)[C@@H](O)CC[C@H]2[C@@H]2CCc3cc(O)ccc3[C@@H]12 [Example 13, N-Butyl-3,17β-Dihydroxy-N-Methyl-11β-Δ^1,3,5(10)-Estratriene-Undecanamide] | 0.19 | 0.00 | 0.5 nM |
